In US12503473B2, “Triazolopyrimidine compounds and their use in treating cancer” (Dizal (Jiangsu) Pharmaceutical Co., Ltd., priority 2018, dated 2025):

Experiments:
MCT4 [1] = molecular target: T1, MCT4 (Homo sapiens, UniProt O15427); assay: Assay (a): lactate efflux from SK-Br-3 cells (lactate in media, 4 h); type: cell-based; parameters: a natively glycolytic human breast adenocarcinoma line predominantly expressing MCT4; host or cells: SK-Br-3; conditions: mean of at least three repeats (Example 32, marked *, two repeats), read-out: MCT4 lactate efflux pIC50 (SKBR3) (converted)
T1 sequence (O15427 1-465): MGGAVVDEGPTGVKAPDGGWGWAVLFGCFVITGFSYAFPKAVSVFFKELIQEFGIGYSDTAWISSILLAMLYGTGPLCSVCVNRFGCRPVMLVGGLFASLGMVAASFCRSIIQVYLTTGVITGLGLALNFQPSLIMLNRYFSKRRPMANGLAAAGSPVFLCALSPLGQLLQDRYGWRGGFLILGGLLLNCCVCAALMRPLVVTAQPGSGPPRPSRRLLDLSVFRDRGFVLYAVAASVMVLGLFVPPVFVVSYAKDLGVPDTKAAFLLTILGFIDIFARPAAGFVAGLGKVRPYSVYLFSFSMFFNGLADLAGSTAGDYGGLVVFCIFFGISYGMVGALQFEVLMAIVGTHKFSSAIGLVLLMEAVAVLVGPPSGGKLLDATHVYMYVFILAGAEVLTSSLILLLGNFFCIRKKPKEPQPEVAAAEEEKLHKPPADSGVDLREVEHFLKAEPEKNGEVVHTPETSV
Protocol: Assay plates were lidded and incubated for 4 hours at 37° C. and 5% CO2.

MCT4 [2] = molecular target: T1, MCT4; assay: cell-based
Protocol: Cells were loaded with the pH sensitive dye BCECFAM(Invitrogen #B11150) before being washed to remove excess dye and seeded into the assay plates—directly onto the test compound—at a density of 15,000 cells/well (NCI—H358) or 30,000 cells/well (K562), in 30 μl HBSS with 1 mM [final] […] Assay plates were lidded and spun in a plate centrifuge at 170 g for 1 minute. Plates were then wrapped in foil and incubated in the dark for 1 hour at room temperature.
Following incubation with test compound, 10 μl of 25 mM Sodium-L-Lactate (Sigma #L7022) made up in HBSS with 1 mM [final] […] This addition was performed directly on the FLIPR Tetra platform (Molecular Devices) as part of a real-time kinetic read protocol. […] A percentage change from base-line was calculated for each test well and values normalised to control wells—treated with either DMSO (maximum assay signal) or chemistry related to that described in this patent (minimum assay signal)—before fitting concentration response curves to determine an IC50 value.

IC50 (MCT4 [1])	IC50 (MCT4 [2])	Structure (SMILES)
0.316 nM	7.94 nM	Cc1nc2nc(C)c(C[C@@H]3CCN(c4cnc(-c5ccc(CN6CCOCC6)nc5)nc4)C3)c(C)n2n1 [Example 11, (R)-4-((5-(5-(3-((2,5,7-trimethyl-[1,2,4]triazolo[1,5-a]pyrimidin-6-yl)methyl)pyrrolidin-1-yl)pyrimidin-2-yl)pyridin-2-yl)methyl)morpholine]
0.501 nM	31.6 nM	Cc1nc2nc(C)c(C[C@@H]3CCN(c4cnc(-c5ccc(CN6CCN(CCO)CC6)cc5)nc4)C3)c(C)n2n1 [Example 16, (R)-2-(4-(4-(5-(3-((2,5,7-trimethyl-[1,2,4]triazolo[1,5-a]pyrimidin-6-yl)methyl)pyrrolidin-1-yl)pyrimidin-2-yl)benzyl)piperazin-1-yl)ethanol]
0.2 nM	7.94 nM	Cc1nc2nc(C)c(C[C@@H]3CCN(c4cnc(-c5ccc(CN6CCOCC6)cc5)nc4)C3)c(C)n2n1 [Example 19, (R)-4-(4-(5-(3-((2,5,7-trimethyl-[1,2,4]triazolo[1,5-a]pyrimidin-6-yl)methyl)pyrrolidin-1-yl)pyrimidin-2-yl)benzyl)morpholine]
0.501 nM	39.8 nM	Cc1nc2nc(C)c(C[C@@H]3CCN(c4cnc(-c5ccc(CN6CCN(C)CC6)cc5)nc4)C3)c(C)n2n1 [Example 20, (R)-2,5,7-trimethyl-6-((1-(2-(4-((4-methylpiperazin-1-yl)methyl)phenyl)pyrimidin-5-yl)pyrrolidin-3-yl)methyl)-[1,2,4]triazolo[1,5-a]pyrimidine]
1.26 nM	20 nM	Cc1nc2nc(C)c(C[C@@H]3CCN(c4ccc(-c5cnc(CN6CCN(C)CC6)cn5)cc4)C3)c(C)n2n1 [Example 21, (R)-2,5,7-trimethyl-6-((1-(4-(5-((4-methylpiperazin-1-yl)methyl)pyrazin-2-yl)phenyl)pyrrolidin-3-yl)methyl)-[1,2,4]triazolo[1,5-a]pyrimidine]
0.398 nM	6.31 nM	Cc1nc2nc(C)c(C[C@@H]3CCN(c4ccc(-c5ccc(CN6CCOCC6)cn5)cc4)C3)c(C)n2n1 [Example 23, (R)-4-((6-(4-(3-((2,5,7-trimethyl-[1,2,4]triazolo[1,5-a]pyrimidin-6-yl)methyl)pyrrolidin-1-yl)phenyl)pyridin-3-yl)methyl)morpholine]
0.631 nM	20 nM	Cc1nc2nc(C)c(C[C@@H]3CCN(c4ccc(-c5ccc(CN6CCN(C)CC6)cn5)cc4)C3)c(C)n2n1 [Example 27, (R)-2,5,7-trimethyl-6-((1-(4-(5-((4-methylpiperazin-1-yl)methyl)pyridin-2-yl)phenyl)pyrrolidin-3-yl)methyl)-[1,2,4]triazolo[1,5-a]pyrimidine]
3.16 nM	50.1 nM	COc1cc(CN2CCN(C)CC2)ccc1-c1ncc(N2CC[C@@H](Cc3c(C)nc4nc(C)nn4c3C)C2)nc1C [Example 31, (R)-6-((1-(5-(2-methoxy-4-((4-methylpiperazin-1-yl)methyl)phenyl)-6-methylpyrazin-2-yl)pyrrolidin-3-yl)methyl)-2,5,7-trimethyl-[1,2,4]triazolo[1,5-a]pyrimidine]
0.398 nM	6.31 nM	Cc1nc2nc(C)c(C[C@@H]3CCN(c4cnc(-c5ccc(CN6CCCCC6)cc5)cn4)C3)c(C)n2n1 [Example 37, 2,5,7-trimethyl-6-[[(3R)-1-[5-[4-(1-piperidylmethyl)phenyl]pyrazin-2-yl]pyrrolidin-3-yl]methyl]-[1,2,4]triazolo[1,5-a]pyrimidine]
3.98 nM	31.6 nM	CCN1CCN(Cc2ccc(-c3cnc(N4CC[C@@H](Cc5c(C)nc6nc(C)nn6c5C)C4)cn3)cc2)CC1 [Example 38, (R)-6-((1-(5-(4-((4-ethylpiperazin-1-yl)methyl)phenyl)pyrazin-2-yl)pyrrolidin-3-yl)methyl)-2,5,7-trimethyl-[1,2,4]triazolo[1,5-a]pyrimidine]
1.26 nM	63.1 nM	Cc1nc2nc(C)c(C[C@@H]3CCN(c4cnc(-c5ccc(CN6C[C@@H](C)N[C@@H](C)C6)cc5)cn4)C3)c(C)n2n1 [Example 40, 6-(((R)-1-(5-(4-(((3R,5S)-3,5-dimethylpiperazin-1-yl)methyl)phenyl)pyrazin-2-yl)pyrrolidin-3-yl)methyl)-2,5,7-trimethyl-[1,2,4]triazolo[1,5-a]pyrimidine]
0.631 nM	20 nM	COc1cc(CN2CCN(C)CC2)ccc1-c1cnc(N2CC[C@@H](Cc3c(C)nc4nc(C)nn4c3C)C2)cn1 [Example 43, (R)-6-((1-(5-(2-methoxy-4-((4-methylpiperazin-1-yl)methyl)phenyl)pyrazin-2-yl)pyrrolidin-3-yl)methyl)-2,5,7-trimethyl-[1,2,4]triazolo[1,5-a]pyrimidine]
2 nM	10 nM	Cc1nc2nc(C)c(C[C@@H]3CCN(c4cnc(-c5ccc(CN6CCOCC6)cn5)c(C)n4)C3)c(C)n2n1 [Example 47, (R)-4-((6-(3-methyl-5-(3-((2,5,7-trimethyl-[1,2,4]triazolo[1,5-a]pyrimidin-6-yl)methyl)pyrrolidin-1-yl)pyrazin-2-yl)pyridin-3-yl)methyl)morpholine]
1.58 nM	10 nM	Cc1nc2nc(C)c(C[C@@H]3CCN(c4cnc(-c5ccc(CN6CCN(C)[C@@H](C)C6)cc5)cn4)C3)c(C)n2n1 [Example 48, 6-(((R)-1-(5-(4-(((S)-3,4-dimethylpiperazin-1-yl)methyl)phenyl)pyrazin-2-yl)pyrrolidin-3-yl)methyl)-2,5,7-trimethyl-[1,2,4]triazolo[1,5-a]pyrimidine]
0.631 nM	7.94 nM	Cc1nc2nc(C)c(C[C@@H]3CCN(c4cnc(-c5ccc(CN6CCOCC6)nc5)cn4)C3)c(C)n2n1 [Example 49, (R)-4-((5-(5-(3-((2,5,7-trimethyl-[1,2,4]triazolo[1,5-a]pyrimidin-6-yl)methyl)pyrrolidin-1-yl)pyrazin-2-yl)pyridin-2-yl)methyl)morpholine]
0.2 nM	10 nM	Cc1nc2nc(C)c(C[C@@H]3CCN(c4cnc(-c5ccc(CN6CCN(S(C)(=O)=O)CC6)cc5)cn4)C3)c(C)n2n1 [Example 52, 2,5,7-trimethyl-6-({(3R)-1-[5-(4-{[4-(methylsulfonyl)piperazin-1-yl]methyl}phenyl)pyrazin-2-yl]pyrrolidin-3-yl}methyl)[1,2,4]triazolo[1,5-a]pyrimidine]
0.631 nM	25.1 nM	Cc1nc2nc(C)c(C[C@@H]3CCN(c4cnc(-c5ccc(CN6CCN(CC(=O)N(C)C)CC6)cc5)cn4)C3)c(C)n2n1 [Example 53, (R)—N,N-dimethyl-2-(4-(4-(5-(3-((2,5,7-trimethyl-[1,2,4]triazolo[1,5-a]pyrimidin-6-yl)methyl)pyrrolidin-1-yl)pyrazin-2-yl)benzyl)piperazin-1-yl)acetamide]
0.398 nM	7.94 nM	Cc1nc2nc(C)c(C[C@@H]3CCN(c4cnc(-c5ccc(CN6CCN(C)CC6)cc5)c(C)n4)C3)c(C)n2n1 [Example 54, (R)-2,5,7-trimethyl-6-((1-(6-methyl-5-(4-((4-methylpiperazin-1-yl)methyl)phenyl)pyrazin-2-yl)pyrrolidin-3-yl)methyl)-[1,2,4]triazolo[1,5-a]pyrimidine]
0.251 nM	10 nM	Cc1nc2nc(C)c(C[C@@H]3CCN(c4cnc(-c5ccc(CN6CCN(C(=O)N(C)C)CC6)cc5)cn4)C3)c(C)n2n1 [Example 55, N,N-dimethyl-4-[4-(5-{(3R)-3-[(2,5,7-trimethyl[1,2,4]triazolo[1,5-a]pyrimidin-6-yl)methyl]pyrrolidin-1-yl}pyrazin-2-yl)benzyl]piperazine-1-carboxamide]
0.631 nM	20 nM	Cc1nc2nc(C)c(C[C@@H]3CCN(c4cnc(-c5ccc(CN6CCN(C)CC6)c(C)c5)cn4)C3)c(C)n2n1 [Example 56, (R)-2,5,7-trimethyl-6-((1-(5-(3-methyl-4-((4-methylpiperazin-1-yl)methyl)phenyl)pyrazin-2-yl)pyrrolidin-3-yl)methyl)-[1,2,4]triazolo[1,5-a]pyrimidine]
3.98 nM	126 nM	Cc1nc2nc(C)c(C[C@@H]3CCN(c4cnc(-c5ccc(CN6CCN(C)CC6)nc5)cn4)C3)c(C)n2n1 [Example 57, (R)-2,5,7-trimethyl-6-((1-(5-(6-((4-methylpiperazin-1-yl)methyl)pyridin-3-yl)pyrazin-2-yl)pyrrolidin-3-yl)methyl)-[1,2,4]triazolo[1,5-a]pyrimidine]
1 nM	6.31 nM	Cc1nc2nc(C)c(C[C@@H]3CCN(c4ccc(-c5ccc(CN6CCOCC6)cc5)nn4)C3)c(C)n2n1 [Example 61, (R)-4-(4-(6-(3-((2,5,7-trimethyl-[1,2,4]triazolo[1,5-a]pyrimidin-6-yl)methyl)pyrrolidin-1-yl)pyridazin-3-yl)benzyl)morpholine]
3.98 nM	15.8 nM	Cc1nc2nc(C)c(O[C@@H]3CCN(c4cnc(-c5ccc(CN6CCN(C)CC6)cc5)cn4)C3)c(C)n2n1 [Example 77, (R)-2,5,7-trimethyl-6-((1-(5-(4-((4-methylpiperazin-1-yl)methyl)phenyl)pyrazin-2-yl)pyrrolidin-3-yl)oxy)-[1,2,4]triazolo[1,5-a]pyrimidine]
